What all share (assay): KINOMEscan
Format in all cases: binding
Conditions in all cases: read-out: % control activity remaining

The target of one test is T1, FES (Homo sapiens, UniProt P07332).
T1 construct: purchased Eurofins DiscoverX KINOMEscan

The next test has as its target T2, HIPK4 (Homo sapiens, UniProt Q8NE63).
T2 construct: purchased Eurofins DiscoverX KINOMEscan
T2 sequence (Q8NE63 1-616): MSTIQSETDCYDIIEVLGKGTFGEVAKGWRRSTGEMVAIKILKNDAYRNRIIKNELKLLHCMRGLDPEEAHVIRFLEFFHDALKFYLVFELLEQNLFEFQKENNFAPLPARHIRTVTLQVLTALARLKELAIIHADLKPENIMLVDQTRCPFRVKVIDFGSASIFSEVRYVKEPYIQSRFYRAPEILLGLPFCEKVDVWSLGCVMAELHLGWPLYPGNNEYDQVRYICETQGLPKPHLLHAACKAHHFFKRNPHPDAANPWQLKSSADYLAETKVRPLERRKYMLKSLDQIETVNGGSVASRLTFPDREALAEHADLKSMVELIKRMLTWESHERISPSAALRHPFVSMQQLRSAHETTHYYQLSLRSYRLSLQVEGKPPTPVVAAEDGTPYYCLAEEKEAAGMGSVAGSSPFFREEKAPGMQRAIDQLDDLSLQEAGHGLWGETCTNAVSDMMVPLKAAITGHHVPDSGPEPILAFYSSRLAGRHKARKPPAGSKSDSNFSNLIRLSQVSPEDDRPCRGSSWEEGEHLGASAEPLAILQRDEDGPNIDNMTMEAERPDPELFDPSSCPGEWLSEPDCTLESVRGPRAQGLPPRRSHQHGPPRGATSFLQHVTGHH

Test [1] addresses T3, ABL1(T315I)-nonphosphorylated (Homo sapiens, UniProt P00519, T315I).
T3 construct: purchased Eurofins DiscoverX KINOMEscan

The next test addresses T4, DCAMKL1 (Homo sapiens, UniProt O15075).
T4 construct: purchased Eurofins DiscoverX KINOMEscan
T4 sequence (O15075 1-740): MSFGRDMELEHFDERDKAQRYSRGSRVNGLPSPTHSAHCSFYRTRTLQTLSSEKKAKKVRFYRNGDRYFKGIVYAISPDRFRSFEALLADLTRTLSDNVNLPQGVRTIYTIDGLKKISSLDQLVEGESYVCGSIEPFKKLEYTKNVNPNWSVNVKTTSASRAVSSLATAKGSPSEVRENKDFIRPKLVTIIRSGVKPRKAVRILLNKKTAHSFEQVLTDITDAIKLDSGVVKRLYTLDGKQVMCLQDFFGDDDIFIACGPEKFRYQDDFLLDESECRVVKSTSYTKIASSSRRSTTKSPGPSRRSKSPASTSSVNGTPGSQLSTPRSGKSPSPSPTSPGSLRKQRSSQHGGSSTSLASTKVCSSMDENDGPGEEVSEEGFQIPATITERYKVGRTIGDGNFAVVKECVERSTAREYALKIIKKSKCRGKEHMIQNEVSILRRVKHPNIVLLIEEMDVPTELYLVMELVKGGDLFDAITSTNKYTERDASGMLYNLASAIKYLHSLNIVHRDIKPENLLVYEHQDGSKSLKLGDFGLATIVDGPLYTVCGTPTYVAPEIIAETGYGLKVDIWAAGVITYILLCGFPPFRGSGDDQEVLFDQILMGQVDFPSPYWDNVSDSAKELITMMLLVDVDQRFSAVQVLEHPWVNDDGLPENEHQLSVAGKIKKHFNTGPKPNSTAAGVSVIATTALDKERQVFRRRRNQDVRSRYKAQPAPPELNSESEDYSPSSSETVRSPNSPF

The target in the next test is T5, ADCK3 (Homo sapiens, UniProt Q8NI60).
T5 construct: purchased Eurofins DiscoverX KINOMEscan

The target in another test is T6, ACVR2B (Homo sapiens, UniProt Q13705).
T6 construct: purchased Eurofins DiscoverX KINOMEscan

The next test has as its target T7, EPHB1 (Homo sapiens, UniProt P54762).
T7 construct: purchased Eurofins DiscoverX KINOMEscan
T7 sequence (P54762 18-984): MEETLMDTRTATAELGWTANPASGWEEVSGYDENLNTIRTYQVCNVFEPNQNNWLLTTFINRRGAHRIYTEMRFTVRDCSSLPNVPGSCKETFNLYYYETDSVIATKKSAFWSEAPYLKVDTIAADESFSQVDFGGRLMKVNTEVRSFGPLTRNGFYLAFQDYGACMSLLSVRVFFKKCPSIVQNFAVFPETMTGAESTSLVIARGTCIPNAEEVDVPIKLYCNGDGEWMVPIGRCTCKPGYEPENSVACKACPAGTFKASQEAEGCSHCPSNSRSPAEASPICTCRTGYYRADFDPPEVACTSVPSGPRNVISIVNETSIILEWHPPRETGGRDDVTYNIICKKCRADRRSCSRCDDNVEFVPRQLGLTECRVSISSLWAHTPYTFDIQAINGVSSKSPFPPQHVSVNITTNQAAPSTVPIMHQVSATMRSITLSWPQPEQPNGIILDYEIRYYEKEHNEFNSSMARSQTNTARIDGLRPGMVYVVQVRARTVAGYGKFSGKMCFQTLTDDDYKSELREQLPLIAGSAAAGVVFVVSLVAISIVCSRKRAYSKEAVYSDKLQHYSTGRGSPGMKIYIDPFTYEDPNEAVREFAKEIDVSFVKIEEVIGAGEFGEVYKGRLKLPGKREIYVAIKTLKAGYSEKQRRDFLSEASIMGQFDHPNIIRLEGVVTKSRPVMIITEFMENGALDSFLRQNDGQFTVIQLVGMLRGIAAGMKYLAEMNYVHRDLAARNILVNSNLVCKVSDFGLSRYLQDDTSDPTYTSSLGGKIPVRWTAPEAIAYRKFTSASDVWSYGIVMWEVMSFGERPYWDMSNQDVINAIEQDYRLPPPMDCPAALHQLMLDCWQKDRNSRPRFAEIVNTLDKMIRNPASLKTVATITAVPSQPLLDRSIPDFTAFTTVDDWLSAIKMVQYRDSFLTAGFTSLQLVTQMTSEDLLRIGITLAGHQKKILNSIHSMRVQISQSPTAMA

A further test addresses T8, KIT-autoinhibited (Homo sapiens, UniProt P10721).
T8 construct: purchased Eurofins DiscoverX KINOMEscan

T6 sequence (Q13705 19-512): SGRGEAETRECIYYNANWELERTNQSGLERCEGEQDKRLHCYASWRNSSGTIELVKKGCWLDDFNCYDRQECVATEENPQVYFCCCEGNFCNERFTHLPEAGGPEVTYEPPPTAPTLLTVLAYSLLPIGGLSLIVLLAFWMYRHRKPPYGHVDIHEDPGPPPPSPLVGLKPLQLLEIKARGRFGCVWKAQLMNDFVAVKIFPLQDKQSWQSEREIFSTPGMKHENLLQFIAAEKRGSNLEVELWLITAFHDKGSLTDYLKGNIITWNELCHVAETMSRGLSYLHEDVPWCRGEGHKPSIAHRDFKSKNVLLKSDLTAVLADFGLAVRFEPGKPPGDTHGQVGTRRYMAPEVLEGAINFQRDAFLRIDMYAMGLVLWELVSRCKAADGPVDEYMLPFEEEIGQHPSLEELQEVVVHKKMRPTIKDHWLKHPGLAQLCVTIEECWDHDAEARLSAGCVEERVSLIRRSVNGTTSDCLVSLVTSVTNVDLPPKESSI
T5 sequence (Q8NI60 163-647): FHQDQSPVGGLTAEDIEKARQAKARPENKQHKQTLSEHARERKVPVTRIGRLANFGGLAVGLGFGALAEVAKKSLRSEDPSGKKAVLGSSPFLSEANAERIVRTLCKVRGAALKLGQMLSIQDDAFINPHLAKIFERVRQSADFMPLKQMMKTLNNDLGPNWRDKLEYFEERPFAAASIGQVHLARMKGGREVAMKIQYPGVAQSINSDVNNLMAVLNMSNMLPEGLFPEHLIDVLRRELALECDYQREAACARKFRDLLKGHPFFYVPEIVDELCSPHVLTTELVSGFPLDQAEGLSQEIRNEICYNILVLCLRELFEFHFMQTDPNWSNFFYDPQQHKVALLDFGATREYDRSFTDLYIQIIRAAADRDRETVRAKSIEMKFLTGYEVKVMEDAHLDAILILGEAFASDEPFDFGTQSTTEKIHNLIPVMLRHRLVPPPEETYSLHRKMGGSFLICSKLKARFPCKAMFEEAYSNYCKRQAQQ
T8 sequence (P10721 26-976): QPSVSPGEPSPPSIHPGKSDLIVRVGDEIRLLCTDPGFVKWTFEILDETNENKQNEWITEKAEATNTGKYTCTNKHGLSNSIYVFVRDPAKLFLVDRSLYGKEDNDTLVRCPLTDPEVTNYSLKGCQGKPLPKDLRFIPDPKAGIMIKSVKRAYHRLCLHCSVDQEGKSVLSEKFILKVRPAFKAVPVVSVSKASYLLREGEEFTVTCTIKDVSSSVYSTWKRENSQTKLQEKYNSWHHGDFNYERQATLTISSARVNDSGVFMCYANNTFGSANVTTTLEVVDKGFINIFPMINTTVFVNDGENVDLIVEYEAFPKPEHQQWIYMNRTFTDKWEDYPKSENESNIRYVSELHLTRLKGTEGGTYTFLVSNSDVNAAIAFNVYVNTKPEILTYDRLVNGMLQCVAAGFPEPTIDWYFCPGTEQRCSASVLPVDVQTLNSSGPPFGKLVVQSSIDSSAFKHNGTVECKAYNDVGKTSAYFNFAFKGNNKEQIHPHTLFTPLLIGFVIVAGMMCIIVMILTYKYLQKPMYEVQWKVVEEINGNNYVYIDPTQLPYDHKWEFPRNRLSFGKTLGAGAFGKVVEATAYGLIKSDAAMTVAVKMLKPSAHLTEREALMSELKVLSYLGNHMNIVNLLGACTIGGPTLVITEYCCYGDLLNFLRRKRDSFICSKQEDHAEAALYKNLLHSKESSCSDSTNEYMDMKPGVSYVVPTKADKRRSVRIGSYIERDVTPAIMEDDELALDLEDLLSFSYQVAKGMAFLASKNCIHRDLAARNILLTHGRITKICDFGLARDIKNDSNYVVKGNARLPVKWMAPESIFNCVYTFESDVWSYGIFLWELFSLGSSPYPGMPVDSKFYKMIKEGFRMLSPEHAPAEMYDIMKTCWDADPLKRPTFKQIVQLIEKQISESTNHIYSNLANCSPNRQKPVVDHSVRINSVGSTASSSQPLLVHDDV
T1 sequence (P07332 whole entry): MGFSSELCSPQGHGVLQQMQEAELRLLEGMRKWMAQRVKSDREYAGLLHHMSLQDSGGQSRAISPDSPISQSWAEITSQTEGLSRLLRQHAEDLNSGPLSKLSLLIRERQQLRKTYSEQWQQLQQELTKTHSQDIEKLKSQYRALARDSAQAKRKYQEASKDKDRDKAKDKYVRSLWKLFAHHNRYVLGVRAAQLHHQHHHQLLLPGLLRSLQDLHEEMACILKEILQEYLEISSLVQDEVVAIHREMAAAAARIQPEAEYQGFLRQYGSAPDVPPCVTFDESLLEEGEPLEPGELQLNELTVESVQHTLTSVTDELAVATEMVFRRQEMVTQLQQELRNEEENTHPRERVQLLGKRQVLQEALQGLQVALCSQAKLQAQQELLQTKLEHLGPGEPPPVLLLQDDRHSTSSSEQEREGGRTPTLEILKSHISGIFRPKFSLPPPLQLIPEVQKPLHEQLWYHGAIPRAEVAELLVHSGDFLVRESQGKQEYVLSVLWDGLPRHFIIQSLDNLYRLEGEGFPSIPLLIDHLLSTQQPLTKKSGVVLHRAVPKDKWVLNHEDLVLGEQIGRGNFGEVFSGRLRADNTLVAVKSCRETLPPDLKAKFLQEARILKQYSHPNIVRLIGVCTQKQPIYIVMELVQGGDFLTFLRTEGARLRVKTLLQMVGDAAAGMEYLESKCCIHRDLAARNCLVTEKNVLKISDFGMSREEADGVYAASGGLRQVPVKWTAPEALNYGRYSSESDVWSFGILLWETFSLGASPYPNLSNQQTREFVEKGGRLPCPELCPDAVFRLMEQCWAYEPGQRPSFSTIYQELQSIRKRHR

For `Clc1cc(NCC2CC2)c2ncc(-c3ccc4[nH]ncc4c3)n2n1` [compound 2, 6-Chloro-N-(cyclopropylmethyl)-3-(1H-indazol-5-yl)imidazo[1,2-b]pyridazin-8-amine], the remaining binding at 1 µM was found to be 87% at FES; 8.6% at HIPK4; 76% in test [1]; 99% on DCAMKL1; 79% at ADCK3; 100% on ACVR2B. Also, the remaining binding at 1 µM on EPHB1 was determined as 100%; on KIT-autoinhibited, 82%.
Turning to `O=C(CN1CCOCC1)N[C@H]1CC[C@H](Nc2cc(Cl)nn3c(-c4ccc5[nH]ncc5c4)cnc23)CC1` [compound 26], the remaining binding at 1 µM on FES is 88%; on HIPK4 it was 5.1%; in test [1], 38%; on DCAMKL1, 100%; on ADCK3, 88%; on ACVR2B it was 99%. Besides, the remaining binding at 1 µM at EPHB1 is 89%; on KIT-autoinhibited it was 34%.
`CN1CCC(CNc2cc(Cl)nn3c(-c4cc5nc(Nc6ccccc6)[nH]c5cc4F)cnc23)CC1` [compound 31, 6-Chloro-3-(6-fluoro-2-(phenylamino)-1H-benzo[d]imidazol-5-yl)-N-((1-methylpiperidin-4-yl)methyl)imidazo[1,2-b]pyridazin-8-amine]: the remaining binding at 1 µM at FES came to 96%; on HIPK4 it was 71%; in test [1], 71%; at DCAMKL1, 81%; at ADCK3, 85%; on ACVR2B it was 100%. Besides, the results for the remaining binding at 1 µM at EPHB1 and on KIT-autoinhibited were 84% and 98%, respectively.
